Publication PMC8829872 (Cancer chemotherapy and pharmacology, 2022)
Like-named read-outs stand apart in the source and are kept apart here.

Columns and labels:
[1] = Intestinal contribution to oral bioavailability (hepatic and gut contributions calculated from IV PK); type: in vivo, mice; settings: 10 mg/kg IV
Protocol: The contribution of gut to oral bioavailability was estimated by calculating the contribution of liver processes to bioavailability from IV data and stripping this contribution from the observed bioavailabilities. Assuming IV drug clearance was restricted to hepatic processes, the predicted bioavailability based solely on liver processes, FH, was calculated from IV PK. […] Fe was derived from the amount of drug measured in urine (Ae) and the total amount of drug administered, see Eq. (7). ClBlood was defined by multiplying the observed plasma clearance (Clplasma) by the ratio of plasma exposure (AUCplasma) to total blood exposure (AUCBlood), see Eq. (8). AUCBlood was calculated using hematocrit (HCT) to construct total blood exposure contributions from exposure in RBC (AUCRBC) and plasma, see Eq. (9).

[2] = Unified compartmental PK model (ADAPT5); parameters: species or system mice; settings: for bioavailability: Balb/c, mouse, plasma, read-out: Model F (compartmental bioavailability)
Protocol: A unified compartmental PK model was developed using ADAPT5 [28] to fit the data, […]. Naïve-pooled concentration-time data from each study was used to estimate PK parameters that were shared between each treatment group. Model performance was determined and reported using parameter CV%, R^2, AIC (Akaike information criterion), as well as visually inspected with standardized residual plots. […] The amount of drug ultimately collected in this compartment allowed for calculation of the bioavailability. The developed model was then used to simulate expected plasma concentrations in the extensive PK study. Separately, tumor and plasma time concentration data from the extensive PK study was used to extend this model to add an uncoupled tumor compartment.

[3] = mouse, in vivo
Protocol: The vehicle for all groups was 10% DMSO, 40% propylene glycol, and 50% dH2O. […] Mice were euthanized by CO2 inhalation and the following tissues collected: blood, liver, kidney, lung, skeletal muscle, and brain.
Duplicate standard curves with calibrators consisting of 0.3, 1, 3, 10, 30 100, 300, and 1,000 ng/mL, in addition to blank plasma, were prepared fresh on days of analysis using control Balb/c mouse plasma (Innovative Research, Novi, MI). QCs were prepared in bulk and stored at −80 °C, with concentrations of 0.8 (QCL), 20 (QCM), and 800 ng/mL (QCH). […] The injection volume was 3 μL. […] Curve fitting was accomplished through linear regression with 1/y^2 weighting. Semi-quantitation of metabolites was accomplished by reporting IS normalized metabolite response.
Noncompartmental (NC) PK was determined using GraphPad Prism (San Diego, CA) using the linear trapezoidal method and Bailer method of AUC determination for estimates of exposure in plasma, RBC, tumors, and tissues [24]. PK parameters or analysis requiring dose were adjusted for the actual dose as determined using measurements of dosing solution. Dose-normalized plasma exposures, Cmax and AUC, of PO treated groups of the dose linearity studies were compared using ANOVA tests to determine dose linearity.
Tissue partition coefficients (PTissue) and RBC partitioning (PRBC) were calculated using Eq. (1) and tested among PO treated groups using ANOVA tests.
The resulting concentrations were multiplied by the volume or weight to convert to a total amount and then divided by 3 to account for the number of mice per cage. These amounts were then divided by the average total amount of drug administered to calculate the percent excreted by urine and feces, see Eq. (2). Renal clearance (ClR) was calculated by dividing the excreted amount by the plasma AUC, see Eq. (3) [25].
When available, plasma metabolite data was used to determine semi-quantitative exposure as well as metabolic ratios, using Eq. (4). The MR among PO treated groups in the dose linearity studies were compared using ANOVA testing. Metabolite presence was also analyzed in urine and feces.

[4] = 1 h after 25 mg/kg IP; cited from earlier work
[5] = extensive PK study, model with uncoupled tumor compartment
[6] = non-linear model, dose linearity and bioavailability studies

ClBlood [1]: 0.550 mL/min
Fraction excreted, Fe ([1]; urine): 0.0191
clearance ([1]; Balb/c, plasma, average mouse size 18.3 g, read-out: ClPlasma): 0.634 mL/min
bioavailability ([2]; 2 mg/kg PO): 40.4%
bioavailability ([2]; 7.5 mg/kg PO): 61.5%
bioavailability ([2]; 20 mg/kg PO): 80.4%
bioavailability ([2]; 75 mg/kg PO): 90.8%
Ka (fixed to dose linearity model estimate) [2, 5]: 0.234 min⁻¹
Kct (model estimate) [2, 5]: 0.325 min⁻¹
Ktc (model estimate) [2, 5]: 0.0537 min⁻¹
Vc (model estimate) [2, 5]: 5.04 L/kg
Ka (model estimate) [2, 6]: 0.234 min⁻¹
Km (model estimate, pre-systemic saturable efflux/metabolism) [2, 6]: 157 ng
Kna (model estimate) [2, 6]: 0.0120 min⁻¹
Vc (model estimate) [2, 6]: 1.91 L/kg
Vmax (model estimate, pre-systemic saturable efflux/metabolism) [2, 6]: 1238 ng/min
Vp (model estimate) [2, 6]: 2.61 L/kg
Renal excretion of unaltered drug ([3]; Balb/c): < 4 % of dose
decrease of apparent clearance (Cl/F/kg) ([3]; Balb/c, po): approximately 50%
decrease of apparent volume of distribution (Vd/F/kg) ([3]; Balb/c, po): approximately 50%
excreted unchanged in the feces ([3]; Balb/c, po): 9.2-15.7 % of dose
Cl ([3]; Balb/c, po, 2 mg/kg): 75.7 mL/min/kg
Vd ([3]; Balb/c, po, 2 mg/kg): 11.4 L/kg
Cl ([3]; Balb/c, po, 7.5 mg/kg): 58.8 mL/min/kg
Vd ([3]; Balb/c, po, 7.5 mg/kg): 11.0 L/kg
Cl ([3]; Balb/c, po, 20 mg/kg): 40.4 mL/min/kg
Vd ([3]; Balb/c, po, 20 mg/kg): 5.50 L/kg
Cl ([3]; Balb/c, po, 75 mg/kg): 36.3 mL/min/kg
Vd ([3]; Balb/c, po, 75 mg/kg): 6.06 L/kg
Partitioning to lung, PO groups compared to the IV group [3]: approximately two-fold higher
Penetration into the brain [3]: limited
Compound: C[C@@H]1COCCN1c1cc(C2([S@](C)(=N)=O)CC2)nc(-c2cc[nH]c3nccc2-3)n1 [AZD6738]
Amount excreted, Ae ([1]; urine): 4.00 µg
brain concentration [4]: ~200 ng/mL
